Measured values: patent US20240343747A1, “Heteroaryl compounds as inhibitors of TYK2, composition and application thereof” (Accro Bioscience (HK) Limited, priority 2021, published 2024)

Tests used:
hERG channel = hERG channel (Homo sapiens (Human), UniProt Q12809); test: in vitro; settings: human
Method: Chinese hamster ovary (CHO) cell line, CHO-hERG cells were used in this study. CHO-hERG cells were derived from Sophion Biosciences Inc. (Ballerup, Denmark) in Suzhou, China. The cell reserve fluid is frozen in liquid nitrogen tanks. Each batch of stored cell fluid is tested for mycoplasma contamination. The cells were no longer used after 30 generations.
The whole cell patch clamp technique was used to record hERG current at room temperature. The patch-clamp amplifier outputs signals through […] conversion and 2.9 KHz low-pass filtering. Data records were collected by Patchmaster Pro software.
Cells were planted in a cell recording tank and placed on an inverted microscope platform. One cell in the recording tank was randomly selected for experiment. The perfusion system was fixed on an inverted microscope platform and cells were continuously irrigated with ECS.
Manual patch clamp recording microelectrode was prepared with capillary glass tube, which was filled with intracellular fluid. On the day of the patch clamp test, the electrodes were prepared using a borosilicate glass tube (GC150TF-10, Harvard Apparatus Co. UK). The resistance is between 2-5 MΩ after the electrode is filled with ICS.
The clamping voltage was −80 mV, and the first step was depolarized to +60 mV for 850 ms to open the hERG channel. The voltage is then set to −50 mV and maintained for 1275 ms, resulting in a rebound current or tail current, the peak of which is measured and used for analysis. Finally, the voltage is restored to the clamping voltage (−80 mV). During the test, the command voltage program was repeated every 15 s.
At the beginning of recording the perfusion of the solvent control working solution, the test substance/positive control working solution to be tested can be poured after monitoring the tail current peak until more than 3 scanning curves are stable, until the inhibition of the test substance/positive control working solution to the hERG current peak reaches a stable state. Generally, the most recent three consecutive peak values of the current curve basically coincide as a criterion to judge whether the state is stable. After reaching a stable state, continue to pour one concentration of the test sample. One or more test subjects/positive controls, or multiple concentrations of the same drug, can be tested on a cell, and the different test subjects/positive controls need to be rinsed with a solvent control working fluid until the hERG current returns to more than 80% of its pre-drug level.
The concentration of positive control cisapride was 0.1 μM, and two cells were repeated.

TYK2 JH2 = TYK2 JH2 (Homo sapiens (Human), UniProt P29597); test: Competitive binding assay (kinase-tagged phage, qPCR), TYK2 JH2
Method: (§1) For most assays, kinase-tagged T7 phage strains were prepared in an E. coli host derived from the BL21 strain. E. coli were grown to log-phase and infected with T7 phage and incubated with shaking at 32° C. until lysis. The lysates were centrifuged and filtered to remove cell debris. The remaining kinases were produced in HEK-293 cells and subsequently tagged with DNA for qPCR detection. Streptavidin coated magnetic beads were treated with biotinylated small molecule ligands for 30 minutes at room temperature to generate affinity resins for kinase assays. The liganded beads were blocked with excess biotin and washed with blocking buffer (SeaBlock (Pierce), 1% BSA, 0.05% Tween 20, 1 mM DTT) to remove unbound ligand and to reduce non-specific binding. […] Test compounds were prepared as 111X stocks in 100% DMSO. Dissociation constants (Kds) were determined using an 11-point 3-fold compound dilution series with three DMSO control points. All compounds for Kd measurements are distributed by acoustic transfer (non-contact dispensing) in 100% DMSO. The compounds were then diluted directly into the assays such that the final concentration of DMSO was 0.9%. All reactions performed in polypropylene 384-well plate. Each was a final volume of 0.02 ml. The assay plates were incubated at room temperature with shaking for 1 hour and the affinity beads were washed with wash buffer (1×PBS, 0.05% Tween 20). The beads were then re-suspended in elution buffer (1×PBS, 0.05% Tween 20, 0.5 μM nonbiotinylated affinity ligand) and incubated at room temperature with shaking for 30 minutes. The kinase concentration in the eluates was measured by qPCR.
(§2) An 11-point 3-fold serial dilution of each test compound was prepared in 100% DMSO at 100× final test concentration and subsequently diluted to 1× in the assay (final DMSO concentration=1%). Most Kds were determined using a compound top concentration=30,000 nM. If the initial Kd determined was <0.5 nM (the lowest concentration tested), the measurement was repeated with a serial dilution starting at a lower top concentration.
(§3) Binding constants (Kds) were calculated with a standard dose-response curve using the Hill equation: […]
(§4) The Hill Slope was set to −1.
(§5) Curves were fitted using a non-linear least square fit with the Levenberg-Marquardt algorithm.

JAK1 JH1 = JAK1 JH1 (Homo sapiens (Human), UniProt P23458); test: Competitive binding assay (kinase-tagged phage, qPCR), JAK1 JH1
Method: as §1, §2, §3, §4, §5

TYK2 = TYK2 (Mus musculus (Mouse), UniProt Q9R117); test: Luciferase assay in L929 ISRE cells stimulated with IFN-α; format: cell-based; settings: IFN-α 100 ng/mL; for inhibition at 1 µM: read-out: Inhibitory activity % (1000 nM)
Method: • 1. L929 ISRE cells (5000 cells/well) were seeded on 96-well plates and incubated overnight at room temperature; • 2. The cells were pretreated by adding different concentrations (10 nM, 50 nM, 100 nM, 200 nM or 1000 nM) of the test compounds for 2 hours; • 3. Added IFN-α (100 ng/mL) to stimulate cells for 6 hours; • 4. Removed the upper medium, add PBS (100 μL) and washed, then removed PBS; • 5. Added PLB lysis solution (50 μL) to each well, shook the well for 15 minutes; • 6. Transferred PLB lysis solution (30 μL) to a new 96-well whiteboard, added LAR II reagent (LAR II), then quickly read the […]; • 7. Added Stop & Glo reagent (30 μL), then read the 450 nm OD value using the plate washer. • 8. The final results in Table 3 were the OD value in step 6/OD value in step 7.

TYK2/JAK1 pathway = test: Selectivity: TYK2/JAK1 pathway, IFN-α-induced p-STAT1 in human PBMC, western blot; format: cell-based; settings: IFN-α 100 ng/mL, western blot
Method: Commercial human PBMC (peripheral blood mononuclear cells) were centrifuged (400 g) for 10 min, counted and planted on 6-well plates (5 million/well). Then, the compounds to be tested were added for 2 hours and IFN-α (100 ng/mL) was added to stimulate cells for 15 minutes. Protein lysate was used to lysate cells, and BCA kit was used for protein quantification. Finally, p-STAT1/STAT1, P-TYK2/TYK2 and internal reference protein B-Actin were detected by Western blot.

[1] = tested on: production of CXCL-10 stimulated by IFNα in PBMC; test: ELISA: production of CXCL-10 stimulated by IFNα in PBMC; format: cell-based; settings: CXCL-10 production stimulated by IFNα in PBMC, ELISA
Method: • 1. Soak plate: Add 300 μL 1×washing solution and let stand for 30 seconds. After discarding the washing solution, dry the microporous plate on absorbent paper. • 2. Add standard: Add 100 μL of 2-fold standard to standard well. Add 100 μL standard dilution (serum/plasma sample) or culture medium (cell culture supernatant sample) to blank well. • 3. Add sample: Serum/plasma: Add 50 μL 1×assay buffer and 50 μL sample to sample well. Cell culture supernatant: Add 100 μL cell culture supernatant to sample well. • 4. Add detection antibody: Add 50 μL diluted detection antibody (1:100 diluted) to each well. Make sure steps 4, 5 and 6 are added continuously without interruption. The sampling process was completed within 15 minutes. • 5. Incubation: Use sealing plate film to seal the plate. shake at 300 rpm and incubate for 2 hours at room temperature. • 6. Washing: Discard the liquid, add 300 μL of washing solution and wash the plate 6 times. pat dry on blotting paper after each wash. To obtain the desired experimental performance, the residual liquid must be completely removed. • 7. Enzyme addition: Add 100 μL diluted horseradish peroxidase labeled streptavidin to each well (1:100 diluted). • 8. Incubation: Seal the plate with a new sealing film. shake at 300 rpm and incubate at room temperature for 45 minutes. • 9. Washing. Repeat step […]. • 10. Add substrate for color development: Add 100 μL of color development substrate TMB to each well, keep away from light, and incubate at room temperature for 5-30 minutes. • 11. Add Stop Solution: Add 100 μL stop solution to each well. The color changed from blue to yellow. If the color appears green or the color changes unevenly, gently tap the frame of the plate to mix well. • 12. Assay readout: Within 30 minutes, perform dual wavelength detection using a microplate reader to measure the OD at the absorption maximum at 450 nm and reference wavelengths at 570 nm or 630 nm. The calibrated OD value is the measured value at 450 nm minus the measured value at 570 nm or 630 nm.

JAK2 JH1 = JAK2 JH1 (Homo sapiens (Human), UniProt O60674); test: Competitive binding assay (kinase-tagged phage, qPCR), JAK2 JH1
Method: For most assays, kinase-tagged T7 phage strains were prepared in an E. coli host derived from the BL21 strain. E. coli were grown to log-phase and infected with T7 phage and incubated with shaking at 32° C. until lysis. The lysates were centrifuged and filtered to remove cell debris. The remaining kinases were produced in HEK-293 cells and subsequently tagged with DNA for qPCR detection. Streptavidin coated magnetic beads were treated with biotinylated small molecule ligands for 30 minutes at room temperature to generate affinity resins for kinase assays. The liganded beads were blocked with excess biotin and washed with blocking buffer (SeaBlock (Pierce), 1% BSA, 0.05% Tween 20, 1 mM DTT) to remove unbound ligand and to reduce non-specific binding. […] Test compounds were prepared as 111X stocks in 100% DMSO. Dissociation constants (Kds) were determined using an 11-point 3-fold compound dilution series with three DMSO control points. […] The kinase concentration in the eluates was measured by qPCR.
An 11-point 3-fold serial dilution of each test compound was prepared in 100% DMSO at 100× final test concentration and subsequently diluted to 1× in the assay (final DMSO concentration=1%). Most Kds were determined using a compound top concentration=30,000 nM. […]
as §3

JAK2/JAK2 pathway = test: Selectivity: JAK2/JAK2 pathway, TPO-induced p-STAT3 in MEG-1 cells, western blot; format: cell-based; settings: TPO 100 ng/mL
Method: MEG-1 cells were digested by trypsin, re-suspended in 1640 medium and counted. The compounds to be measured were added to 6 well plates (1 million/per well) for 2 hours, and then TPO (final concentration: 100 ng/mL) was added to stimulate cells for 30 minutes. The cells were collected and lysed with protein lysate. The protein was quantitatively tested by BCA kit. Finally, p-STAT3/STAT3 and internal reference protein β-actin were detected by western blot.

JAK1/JAK3 pathway = test: Selectivity: JAK1/JAK3 pathway, IL-2-induced p-STAT5 in human PBMC, western blot; format: cell-based; settings: IL-2 100 ng/mL
Method: Commercial human PBMC (peripheral blood mononuclear cells) were centrifuged (400 g) for 10 min, counted and seeded into 6-well plates (5 million/well). The compounds to be tested were added for 2 hours and then IL-2 (100 ng/mL) was added to stimulate cells for 15 minutes. Finally, p-STAT5/STAT5 and internal reference protein β-actin were detected by Western blot.

IL-23 induced psoriasis = IL-23 induced psoriasis in mice (ear thickness); format: in vivo; settings: oral gavage twice a day, 14 days, B41 10 and 30 mg/kg, BMS986165 10 mg/kg
Method: Recombinant human IL-23 (100 ng/time/mouse) was injected into the right ear of mice every two days starting from day 1 of the study. The administration group included 7 mice, with EtOH:TPGS:PEG300=[…] as vehicle, compound B41 (10 mg/kg, 30 mg/kg) or BMS986165 (10 mg/kg) orally gavage twice a day the night before the first injection of IL-23. The control group was injected with vehicle alone. The experiment lasted for 14 days. The thickness of the ear was measured with a micrometer every two days.

JAK1/JAK2 pathway = test: Selectivity: JAK1/JAK2 pathway, IFN-γ-induced p-STAT1 in HT-29 cells, western blot; format: cell-based; settings: IFN-γ 100 ng/mL
Method: HT-29 cells were digested by trypsin and suspended in DMEM medium and counted. The tested compounds were added into 6 well plates (400 000/per well) for 2 hours, then IFN-γ (100 ng/mL) was added to stimulate cells for 30 minutes. The cells were collected and lysed with protein lysate. The protein was quantitatively tested by BCA kit. Finally, p-STAT1/STAT1 and internal reference protein β-actin were detected by western blot.

TYK2 JH2, sequence (P29597 589-875): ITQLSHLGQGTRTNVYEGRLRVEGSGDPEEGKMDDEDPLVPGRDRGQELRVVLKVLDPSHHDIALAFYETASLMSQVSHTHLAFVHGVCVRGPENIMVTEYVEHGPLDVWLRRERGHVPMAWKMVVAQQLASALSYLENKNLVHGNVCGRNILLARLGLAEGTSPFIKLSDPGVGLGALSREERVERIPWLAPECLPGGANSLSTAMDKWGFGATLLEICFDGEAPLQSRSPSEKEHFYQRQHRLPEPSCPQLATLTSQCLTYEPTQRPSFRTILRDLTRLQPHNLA
TYK2, sequence (Q9R117 whole entry): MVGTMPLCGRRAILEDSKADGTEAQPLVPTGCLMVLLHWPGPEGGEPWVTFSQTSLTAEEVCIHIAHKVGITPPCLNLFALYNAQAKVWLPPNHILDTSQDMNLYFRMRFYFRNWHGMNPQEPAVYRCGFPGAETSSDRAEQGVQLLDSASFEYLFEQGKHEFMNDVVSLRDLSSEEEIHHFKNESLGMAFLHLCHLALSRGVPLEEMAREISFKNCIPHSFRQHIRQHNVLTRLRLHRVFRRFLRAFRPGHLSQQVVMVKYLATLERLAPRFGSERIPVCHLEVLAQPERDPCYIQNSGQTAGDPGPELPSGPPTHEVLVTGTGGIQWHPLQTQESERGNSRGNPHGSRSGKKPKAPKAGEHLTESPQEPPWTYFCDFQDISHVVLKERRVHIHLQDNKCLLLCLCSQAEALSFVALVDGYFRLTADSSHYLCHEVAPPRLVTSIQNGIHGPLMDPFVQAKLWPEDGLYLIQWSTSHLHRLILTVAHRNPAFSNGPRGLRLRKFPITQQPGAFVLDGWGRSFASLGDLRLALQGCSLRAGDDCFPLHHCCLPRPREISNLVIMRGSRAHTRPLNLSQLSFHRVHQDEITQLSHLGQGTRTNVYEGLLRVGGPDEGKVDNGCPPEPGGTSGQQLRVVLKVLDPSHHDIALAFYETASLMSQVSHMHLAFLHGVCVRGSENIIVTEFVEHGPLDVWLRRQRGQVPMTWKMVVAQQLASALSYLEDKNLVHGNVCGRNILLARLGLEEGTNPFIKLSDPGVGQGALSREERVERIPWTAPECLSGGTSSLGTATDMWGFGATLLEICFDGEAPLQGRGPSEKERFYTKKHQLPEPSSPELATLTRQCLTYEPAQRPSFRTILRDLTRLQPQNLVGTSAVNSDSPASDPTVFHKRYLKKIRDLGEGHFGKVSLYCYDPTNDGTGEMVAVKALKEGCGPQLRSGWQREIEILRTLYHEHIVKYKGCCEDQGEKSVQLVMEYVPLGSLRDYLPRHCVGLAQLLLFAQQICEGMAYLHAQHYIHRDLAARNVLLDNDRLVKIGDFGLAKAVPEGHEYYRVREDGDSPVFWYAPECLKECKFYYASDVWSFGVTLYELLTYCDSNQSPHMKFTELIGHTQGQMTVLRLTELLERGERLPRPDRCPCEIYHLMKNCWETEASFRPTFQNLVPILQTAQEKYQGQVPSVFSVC
JAK1 JH1, sequence (P23458 875-1153): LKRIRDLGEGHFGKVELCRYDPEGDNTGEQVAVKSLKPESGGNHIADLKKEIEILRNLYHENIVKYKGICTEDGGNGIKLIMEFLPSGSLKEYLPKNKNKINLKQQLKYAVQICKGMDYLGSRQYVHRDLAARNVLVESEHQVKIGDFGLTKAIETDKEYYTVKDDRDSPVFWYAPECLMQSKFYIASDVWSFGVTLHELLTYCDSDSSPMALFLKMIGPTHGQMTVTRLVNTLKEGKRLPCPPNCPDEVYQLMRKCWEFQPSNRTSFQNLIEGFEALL
JAK2 JH1, sequence (O60674 849-1124): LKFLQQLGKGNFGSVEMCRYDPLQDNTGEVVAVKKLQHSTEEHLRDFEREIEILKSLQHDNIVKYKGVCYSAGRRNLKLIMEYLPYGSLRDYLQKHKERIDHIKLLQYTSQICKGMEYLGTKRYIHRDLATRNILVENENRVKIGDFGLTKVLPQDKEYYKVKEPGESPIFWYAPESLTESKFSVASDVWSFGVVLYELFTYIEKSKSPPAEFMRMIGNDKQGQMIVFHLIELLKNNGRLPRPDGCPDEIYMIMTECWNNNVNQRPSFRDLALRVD
hERG channel, sequence (Q12809 whole entry): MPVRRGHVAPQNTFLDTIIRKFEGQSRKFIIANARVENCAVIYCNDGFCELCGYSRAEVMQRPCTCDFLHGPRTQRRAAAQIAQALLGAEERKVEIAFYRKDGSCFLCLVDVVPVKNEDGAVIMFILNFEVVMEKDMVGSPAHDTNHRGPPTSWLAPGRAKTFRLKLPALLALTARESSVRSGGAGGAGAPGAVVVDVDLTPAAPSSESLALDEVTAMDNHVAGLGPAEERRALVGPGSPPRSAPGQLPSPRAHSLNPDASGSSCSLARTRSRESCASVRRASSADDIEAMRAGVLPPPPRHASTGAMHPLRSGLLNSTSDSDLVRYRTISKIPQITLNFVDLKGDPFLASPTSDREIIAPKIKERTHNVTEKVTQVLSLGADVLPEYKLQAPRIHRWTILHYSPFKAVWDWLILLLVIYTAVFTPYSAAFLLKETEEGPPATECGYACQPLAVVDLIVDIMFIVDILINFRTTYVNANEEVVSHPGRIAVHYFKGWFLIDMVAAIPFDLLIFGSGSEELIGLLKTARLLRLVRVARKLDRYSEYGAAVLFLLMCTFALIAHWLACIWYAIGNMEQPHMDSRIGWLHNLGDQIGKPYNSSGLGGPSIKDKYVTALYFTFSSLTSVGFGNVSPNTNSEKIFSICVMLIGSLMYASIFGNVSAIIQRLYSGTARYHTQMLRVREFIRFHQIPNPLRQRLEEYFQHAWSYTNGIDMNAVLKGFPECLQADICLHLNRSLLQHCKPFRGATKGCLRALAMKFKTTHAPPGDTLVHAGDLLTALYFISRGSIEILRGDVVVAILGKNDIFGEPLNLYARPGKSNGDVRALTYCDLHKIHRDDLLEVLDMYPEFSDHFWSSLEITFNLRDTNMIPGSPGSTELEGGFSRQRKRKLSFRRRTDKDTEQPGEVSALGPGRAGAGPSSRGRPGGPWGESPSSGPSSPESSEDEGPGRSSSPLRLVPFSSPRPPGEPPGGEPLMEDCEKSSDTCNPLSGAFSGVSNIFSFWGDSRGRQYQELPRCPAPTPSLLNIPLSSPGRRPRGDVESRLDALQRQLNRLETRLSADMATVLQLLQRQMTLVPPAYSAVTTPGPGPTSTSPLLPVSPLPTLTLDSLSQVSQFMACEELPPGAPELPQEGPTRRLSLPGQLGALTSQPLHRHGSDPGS

Row | Molecule | Kd (TYK2 JH2) [nM] | Kd (JAK1 JH1) [nM] | inhibition at 1 µM (TYK2; 1000 nM) [%] | further results
1 | COc1cc(N)c(Cl)cc1C(=O)NC1CCN(CCCOc2ccc(F)cc2)CC1OC (stereo not drawn) [Cisapride, reference compound] | – | – | – | inhibition at 0.1 µM (hERG channel): > 50%
2 | CCC(=O)c1cnc(NC(=O)C2CC2)cc1Nc1cccc(-c2ccc(P(C)(C)=O)cc2)c1OC [Compound B3] | 0.4 | > 30000 | 88 | inhibition at 0.01 µM (TYK2; 10 nM, read-out: Inhibitory activity % (10 nM)): 21%; inhibition at 0.1 µM (TYK2; 100 nM, read-out: Inhibitory activity % (100 nM)): 46%
3 | CCC(=O)c1cnc(NC(=O)C2CC2)cc1Nc1cccc(-c2ccc(P(C)(C)=O)cn2)c1OC [Compound B4] | 0.032 | > 30000 | 58 | –
4 | N#CC[C@H](C1CCCC1)n1cc(-c2ncnc3[nH]ccc23)cn1 [Ruxolitinib, reference compound] | – | – | – | effect on TPO-induced downstream STAT3 phosphorylation (JAK2/JAK2 pathway): could inhibit JAK2/JAK2 pathway
5 | BMS986165 [reference compound] | – | – | – | effect on TPO-induced downstream STAT3 phosphorylation (JAK2/JAK2 pathway): no effect; effect on IL-2-induced downstream STAT5 phosphorylation (JAK1/JAK3 pathway): no effect; IC50 [1]: 56.8 nM; efficacy in IL-23 induced psoriasis (ear thickness) (IL-23 induced psoriasis): effectively inhibit and treat; effect on downstream STAT1 phosphorylation induced by IFN-γ (JAK1/JAK2 pathway): no effect; Inhibitory activity % (50 nM) (TYK2; 50 nM): 74%; Inhibitory activity % (200 nM) (TYK2; 200 nM): 89%; Inhibitory activity % (1000 nM) (TYK2; 1000 nM): 96%

Second part, led by results:

Row | Kd (TYK2 JH2) [nM] | Kd (JAK1 JH1) [nM] | inhibition at 1 µM (TYK2; 1000 nM) [%] | Molecule | further results
6 | 0.095 | > 30000 | 80 | CCC(=O)c1cnc(NC(=O)C2CC2)cc1Nc1cccc(-c2cnc(P(C)(C)=O)cn2)c1OC [Compound B5] | –
7 | 0.016 | > 30000 | 62 | CCC(=O)c1cnc(NC(=O)C2CC2)cc1Nc1cccc(-c2ncc(P(C)(C)=O)cn2)c1OC [Compound B11] | –
8 | 0.0079 | > 30000 | 95 | CCC(=O)c1cnc(NC(=O)C2CC2)cc1Nc1nccc(-c2cc(P(=O)(C3CC3)C3CC3)n(C)n2)c1OC [Compound B38] | inhibition of downstream STAT1 phosphorylation induced by IFN-α (TYK2/JAK1 pathway): effectively inhibit; IC50 [1]: 222 nM; Kd (JAK2 JH1): 11000 nM
